Source: patent US9669047B2, “Method for producing polyphenol composition” (KAO CORPORATION, priority 2012, dated 2017)
In brackets after ≈: the same amount, converted by molar mass.

Experiments:
physchem = conditions: 25 °C, water
From the text: (§1) The term “hardly water-soluble polyphenol” used in the present invention refers to the one having a poor solubility in water. […] The solubility represents herein a gram number of the solute being dissolved in 1 L of the solution with a unit of [g/L].

[1] = Solubility of the raw polyphenols (A) and (B) in water at 25° C.; conditions: for Solubility of (B) in water (25° C.): water-soluble polyphenol (B) alone; for Solubility of (A) in water (25° C.): hardly water-soluble polyphenol (A) alone
From the text: as §1

Compound | Solubility of (B) in water (25° C.) [1] | Solubility of (A) in water (25° C.) [1] | further results
c1cc2c(cc1[C@H]1OC[C@H]3[C@@H]1CO[C@@H]3c1ccc3c(c1)OCO3)OCO2 [Sesamin, sesamin] |  |  | solubility (physchem): 0.14 µg/mL (≈ 0.395 µM)
O=C(O[C@@H]1Cc2c(O)cc(O)cc2O[C@@H]1c1cc(O)c(O)c(O)c1)c1cc(O)c(O)c(O)c1 [Catechin, epigallocatechin gallate] | 15 g/L |  | 
COc1ccc([C@@H]2CC(=O)c3c(O)cc(O[C@@H]4O[C@H](CO[C@@H]5O[C@@H](C)[C@H](O)[C@@H](O)[C@H]5O)[C@@H](O)[C@H](O)[C@H]4O)cc3O2)cc1O [Hesperidin, hesperidin] |  | 50 µg/mL | 
O=c1oc2c(O)c(O)cc3c(=O)oc4c(O)c(O)cc1c4c23 [Ellagic acid, ellagic acid] |  | 4 µg/mL | solubility ([1]; 25 °C): 4 µg/mL (≈ 13.2 µM)
glucosylhesperidin | ≥ 300 or g/L |  | 
